Data set [1] concerns cancer. In words: In vitro cancer targeting of IR783 derivatives. Type of data set: cell-based.
For data set [2], the system named is cancer. Kind of data set: In vivo cancer targeting of IR783 derivatives.
The subject of data set [3] is C4-2 human prostate cancer cells implanted subcutaneously. Kind of data set: Subcutaneous C4-2 prostate tumor model. The settings on record: for incidence of tumor formation: SQ C4-2, i.p., IR783 and IR-MUT1 5 mg/kg daily, taxotere 15 mg/kg twice per week; for apoptosis in SQ C4-2 tumors (histopathology, H/E stain): SQ C4-2 tumors in mice. Format: in vivo, athymic nude mice. On the procedure:
1 million C4-2 human prostate cancer cells were implanted subcutaneously into the back of the 4 to 6 week old athymic nude mice. […] Tumor diameters were measured with a caliper, and tumor volume in mm^3 is calculated by the formula: Volume=(width)^2×length/2.
Serum PSA levels were used to monitor tumor growth in a C4-2 SQ tumor model. Mice were checked for serum PSA levels before implantation and at 35 and 45 days after tumor cell implantation.
(§1) C4-2 prostate cancer cells were subcutaneously implanted into the back of the 4 to 6 week old athymic nude mice. […] The serum prostate specific antigen (PSA) levels, which indicating the presence of prostate cancers, were monitored during the tumor reduction study.

Data set [4] relates to cancer cells. In words: Toxicity to cancer cells at day 2 (FIG. 6). Format: cell-based. The settings on record: evaluated at day 2; compared with free nonconjugated drug taxotere. The text has this:
IR-783 (dye molecule only) is nontoxic. […] This is expected since IR783 conjugated to docetaxel or paclitaxel, accumulation in cells require enzymatic activation, which releases the active taxotere or taxol component inside of the cells to exert cytotoxicity against the growth of cancer cells.

A short description of data set [5]: Body weight during treatment of C4-2 tumor-bearing mice. Type of data set: in vivo, athymic nude mice. The settings on record: i.p.
Source text: During treatment, the body weights were obtained daily.
as §1

The test system of data set [6] is C4-2 human prostate cancer cells implanted intraosseously into the tibia. Kind of data set: Intratibial C4-2 prostate tumor model. Type of data set: in vivo, athymic nude mice. The settings on record: for tumors growing from tibia (incidence): i.p. from 30 days after implantation. The procedure: 1 million C4-2 human prostate cancer cells were implanted intraosseously into the tibia of the 4 to 6 week old athymic nude mice. […] The animals were observed daily and body weights were measured daily. Tumor diameters are measured with calipers, and tumor volume in mm^3 is calculated by the formula: Volume=(width)^2×length×0.5236.
In another tumor model, C4-2 cancer cells were administered intraosseously into the tibia of the 4 to 6 week old athymic nude mice.

The subject of data set [7] is HEK293 human embryonic kidney cells. Kind of data set: MTT cytotoxicity assay, HEK293. Type of data set: cell-based. The settings on record: 48 hrs. On the procedure:
(§2) C4-2 (FIG. 13A) and P69 (FIG. 13B) cells were plated in 96 well plates (3,000/well). […] (FIG. 13C) SN12C and (FIG. 13D) HEK293 cells were plated in 96 well plates (3,000/well).
A general note: Tetrazolium assays rely on reduction of a dye to a coloured formazan, in cell work by metabolically active cells.

The subject of data set [8] is SN12C human renal cancer cells. Kind of data set: MTT cytotoxicity assay, SN12C. Format: cell-based. Particulars: 48 hrs. The procedure:
as §2

The subject of data set [9] is P69 normal human prostate epithelial cells. In words: MTT cytotoxicity assay, P69. Format: cell-based. Particulars: Epithelial cell, 48 hours. On the procedure: as §2
Data set [10] has as its system C4-2 human prostate cancer cells. Kind of data set: MTT cytotoxicity assay, C4-2. Particulars: C4-2 cells, 48 hrs. Format: cell-based. The procedure: as §2

“Also recorded” adds a separate entry of the source. Where two headings read alike, the source gives them in different places.

By IC50 is commonly meant the concentration that inhibits the measured activity by half. Higher therefore signals a need for much substance.

With `COc1ccc2c(c1)C(C)(C)C(/C=C/C=C/C=C1/N(C)c3ccc(OC)cc3C1(C)C)=[N+]2C.[I-]`, the In vitro targeting entry in data set [1] is given as “excellent”.

On to `CN1/C(=C/C=C2\CCCC(/C=C/C3=[N+](C)c4ccc5ccccc5c4C3(C)C)=C2Cl)C(C)(C)C2=c3ccccc3=CCC21.[I-]` (stereo not shown), for which the In vivo targeting result in [2] was “poor”.

Consider `CN1/C(=C/C=C(Cl)/C=C/C2=[N+](C)c3ccc4ccccc4c3C2(C)C)C(C)(C)c2c1ccc1ccccc21`, for which, in data set [1], the In vitro targeting entry is recorded as “excellent”.

For the compound `CC1(C)C(/C=C/C2=C(Cl)C(=C/C=C3/N(CCCc4ccccc4)c4ccccc4C3(C)C)/CCC2)=[N+](CCCc2ccccc2)c2ccccc21`, the In vitro targeting result in data set [1] was “excellent”. Further, the In vivo targeting result in data set [2] is reported as “poor”.

With `CC1(C)C(=CC=C2CCCC(C=CC3=[N+](CCCCS(=O)(=O)[O-])c4ccccc4C3(C)C)=C2Cl)N(CCCCS(=O)(=O)[O-])c2ccccc21.[Na+]` [IR-783, reference compound], in data set [3], the “incidence of tumor formation” value is reported as 9/20 and the “apoptosis in SQ C4-2 tumors (histopathology, H/E stain)” value is “negligible”. For the same compound, the “apoptosis in SQ C4-2 tumors (histopathology, H/E stain)” value in [3] (listed as IR783) was “not affected”. The “toxicity to cancer cells” value in data set [4] is on record as “nontoxic”. The “effect on body weight” value in [5] was “no body weight loss”. In data set [6], the “bone lesions on X-ray” value was “both the osteolytic and osteoblastic lesions were apparently observed”; the “tumors growing from tibia (incidence)” value is given as 4/5. Further, the “average volume of tumor” value in data set [6] (IR-783 group versus IR-MUT1 group) is “significantly higher”. Also, the “bone lesions on X-ray” value in [6] (listed as IR783) is recorded as “severe osteolytic lesions”.

Regarding `CC1(C)C(/C=C/C2=C(Cl)C(=C/C=C3/N(CCCCC(=O)O)c4ccccc4C3(C)C)/CCC2)=[N+](CCCCC(=O)[O-])c2ccccc21`, the In vitro targeting entry in data set [1] is on record as “excellent”. For the same compound, the In vivo targeting result in data set [2] is reported as “excellent”.

`CC1(C)C(/C=C/C2=C(Cl)C(=C/C=C3/N(CCO)c4ccccc4C3(C)C)/CCC2)=[N+](CCO)c2ccccc21`: the In vitro targeting entry in data set [1] is “excellent”. Also, in data set [2], the In vivo targeting entry is recorded as “low intensity”.

In the case of `CN1/C(=C/C=C(Cl)/C=C/C2=[N+](C)c3ccccc3C2(C)C)C(C)(C)c2ccccc21.[I-]`, in data set [1], the In vitro targeting result is recorded as “excellent”.

As for `CC(=O)O[C@@]12CO[C@@H]1C[C@H](O)[C@@]1(C)C(=O)[C@H](O)C3=C(C)[C@@H](OC(=O)[C@H](O)[C@@H](NC(=O)OC(C)(C)C)c4ccccc4)C[C@@](O)([C@@H](OC(=O)c4ccccc4)[C@H]21)C3(C)C` [taxotere, docetaxel, reference compound], the concentration for half-maximal inhibition (IC50) is roughly 600 nM in data set [7], 12 nM in data set [8], roughly 10 nM in [9] and 10 nM in data set [10]. Besides, the “serum PSA levels” value in data set [3] (35 and 45 days after tumor cell implantation, compared with IR-783 (control) group) is “greatly depressed; also recorded: dramatically lower; also recorded: significantly lower”. Moreover, the “incidence of tumor formation” value in [3] was “no tumor growing; also recorded: no tumor formed”. Also, the “effect on body weight” value in [5] is “noticeably lower”. Further, in [6], the “bone lesions on X-ray” value was “no lesion”. For the same compound, the “tumors growing from tibia (incidence)” value in data set [6] is 0/5.

As for `CC1(C)C(/C=C/C2=C(Cl)C(=C/C=C3/N(CCCCCC(=O)O)c4ccccc4C3(C)C)/CCC2)=[N+](CCCCCC(=O)O)c2ccccc21.[Na+].[Na+]`, the In vitro targeting result in [1] is on record as “excellent”. Moreover, in data set [2], the In vivo targeting result was “excellent”.

With `O=C(O)CCCCCn1/c(=C/C=C2\CCCC(/C=C/C3=[N+](CCCCCC(=O)O)c4cccc5cccc3c45)=C2Cl)c2cccc3cccc1c32.[Na+].[Na+]`, the In vitro targeting entry in data set [1] is given as “poor”. In addition, the In vivo targeting entry in data set [2] was “poor”.

With `CC1(C)C(/C=C/C2=C(Cl)C(=C/C=C3/N(CCCCO)c4ccccc4C3(C)C)/CCC2)=[N+](CCCCO)c2ccccc21`, the In vitro targeting result in data set [1] is “poor”. In [2], the In vivo targeting result is given as “poor”.

`I.O=C1C(/C=c2\c3cccc4cccc(c43)n2CCCc2ccccc2)=C([O-])C/1=C/C1=[N+](CCCc2ccccc2)c2cccc3cccc1c23`: in data set [2], the In vivo targeting result is reported as “poor”.

Turning to `CCn1/c(=C/C=C/C2=[N+](CC)c3cccc4cccc2c34)c2cccc3cccc1c32`, the In vitro targeting result in data set [1] is reported as “good”. Moreover, the In vivo targeting result in data set [2] is given as “poor”.

(Values after patent US20230248832A1, “Small Molecule Ligand-Drug Conjugates for Targeted Cancer Therapy” (Emory University, priority 2008, published 2023).)
